Data: patent US12458614B2, “Therapeutic agents for improved mobility and cognitive function and for treating neurodegenerative diseases and lysosomal storage disorders” (priority 2017, dated 2025)

Legend:
[1] = tested on: patients with Niemann-Pick Type C (NPC); conditions: one-month study, 12 NPC patients (Bremova 2015); cited from earlier work
[2] = tested on: microtubule-associated protein 1A/1B-light chain 3-phosphatidylethanolamine conjugate (LC3-II); experiment: LC3-II levels relative to tubulin loading control; format: in vivo, mouse; conditions: NPC1−/− mice, 0.1 g/kg body weight daily from 3 weeks, sacrificed at 8 weeks
Protocol: The Niemann-Pick Disease Type C (NPC) mouse model shares a number of pathological features with Alzheimer's disease (AD) as described herein. […] Mice were sacrificed at 8 weeks of age. Levels of amyloid precursor protein C-terminal fragments (APP-CTFs) were evaluated relative to total amyloid precursor protein (APP) levels in the cerebellum for wild type, untreated wild type NPC1^−/− mice, and AL-treated wild type NPC1^−/− mice. Levels of microtubule-associated protein 1A/1B-light chain 3-phosphatidylethanolamine conjugate (LC3-II) were also evaluated relative to levels of tubulin loading control for wild type, untreated wild type NPC1^−/− mice, and AL-treated wild type NPC1^−/− mice.

[3] = tested on: person with postural imbalance and cognitive decline; experiment: Case study Example 27; format: in vivo, human
Protocol: The patient was examined clinically by means of the following clinical assessments: maximal distance to walk; timed Up and Go test; Scale for the Assessment and Rating of Ataxia (SARA). The patient was also examined by means of posturography after 1 month of the therapy with Tanganil® 500 mg (2 g upon waking, 1.5 g prior to lunch and 1.5 g prior to the evening meal). Medication was taken 30 minutes prior to the meal, or at least 2 hours after the meal. During treatment with Tanganil® (2 g upon waking, 1.5 g prior to lunch and 1.5 g prior to the evening meal) for 1-month, the following assessments were made: […]

[4] = tested on: patients with progressive supranuclear palsy; experiment: Case studies, progressive supranuclear palsy; format: in vivo, human
Protocol: After 27 days of acetyl-leucine treatment, medication was stopped and the patient was re-examined 60 days later. […] Gait analysis was performed before treatment commenced. After 17 days of treatment, medication was stopped and the patient was re-examined 4 days later. […] Gait analysis was performed before treatment commenced. After three weeks of treatment, medication was stopped and the patient was re-examined.

[5] = tested on: fibroblasts from NPC patients; experiment: Relative lysosomal volume via LysoTracker; format: cell-based, human; conditions: 1 mM
Protocol: A fibroblast cell line from an NPC patient was treated for 3 days with N-acetyl-DL-leucine (1 mM) and relative lysosomal volume was quantified via LysoTracker, a fluorescent dye that accumulates in acidic organelles. Increased LysoTracker fluorescence is indicative of an increase in lysosomal size and/or number, and is a hallmark of NPC cells.

[6] = tested on: patient with spinocerebellar ataxia 28 (SCA 28); experiment: Case study, spinocerebellar ataxia 28; format: in vivo, human; conditions: SCA 28 patient, about one month, 5 g per day
Protocol: A gait analysis was performed before treatment commenced. After about one month of treatment, medication was stopped and the patient was evaluated. […] The patient reported that they no longer walked like a robot and could climb the stairs without using the banisters.

[7] = tested on: patients with cerebellar ataxia; conditions: cited from earlier work
[8] = tested on: Npc1−/− mouse; experiment: Lifespan; format: in vivo; conditions: 0.1 g/kg from 3 weeks of age
Source text: Separate groups of Npc1^−/− and Npc1^+/+ mice were left untreated, as controls.

[9] = tested on: Npc1−/− mice; experiment: Gait analysis (CatWalk); format: in vivo, mouse; conditions: eight weeks of age
Protocol: (§1) Separate groups of Npc1^−/− and Npc1^+/+ mice were left untreated, as controls. Gait analysis was performed on mice at eight weeks of age using a CatWalk® 15.0 system according to manufacturer's instructions (Noldus, Nottingham, UK). Five runs were recorded per animal. CatWalk® parameters measured were: • 1. Stand Mean: average duration (s) of paws in contact with glass plate; • 2. Step Cycle: duration (s) between two consecutive contacts of the same paw; • 3. Duty Cycle: percentage of time paws in contact with plate compared with time to complete a step cycle; • 4. Step Sequence (AB): percentage of time spent walking in LF-RH-RF-LH alternating pattern (LF: left front; RH: right hind; RF: right front; LH left hind); • 5. Cadence: step per seconds in a trial; • 6. Diagonal Support: percentage of time with simultaneous contact of diagonal paws with the glass plate (RF&LH or RH&LF). Motor Function Analysis

[10] = tested on: wild-type (Npc1+/+) mice; experiment: Gait analysis (CatWalk); format: in vivo, mouse; conditions: eight weeks of age
Protocol: as §1

[11] = tested on: patients with downbeat nystagmus; experiment: Case studies, downbeat nystagmus; format: in vivo, human
[12] = tested on: patients with multisystemic atrophy cerebellar type (MSA-C); experiment: Case studies, multisystemic atrophy cerebellar type; format: in vivo, human
[13] = PSP Patient 4, after three weeks of treatment
[14] = DBN Patient 1, approximately 14 weeks

CC(=O)NC(CC(C)C)C(=O)O (racemic) [acetyl-DL-leucine]
ataxia symptoms [1]: symptomatic improvement of ataxia
LC3-II levels relative to tubulin [2]: lowering of LC3-II
Subjective measurements ([3]; 1 month on medication): more energy, was more agile and interactive
SARA ([3]; 1 month on medication, baseline 6.5/40): 2/40
Mean timed 8-meter-walking test ([3]; 1 month on medication, baseline 6.5 sec): 4.4 s
Stance up-and-go test ([3]; 1 month on medication, baseline 25.4 sec): 21.2 s
Maximal distance to walk ([3]; 1 month, 2 g/1.5 g/1.5 g per day, baseline 1 km): 1.5 km
Side effects ([3]; 2 g/1.5 g/1.5 g per day dosage regimen): Sleepiness
Frequency of falls ([3]; lower dosage 1 g/1 g/1 g for over 4 months): 0-1 /month
Falls ([3]; therapy period of 1 month): did not record any falls
Symptoms after suspension ([4]; PSP Patient 1): symptoms worsened
PSPRS Score ([4]; PSP Patient 1, re-examined about two months later): remained stable
Dizziness and gait (patient report) ([4]; PSP Patient 1, under therapy, 27 days): significant reduction of dizziness and slight improvement of gait
Gait / hypokinetic rigid syndrome (patient report) ([4]; PSP Patient 2, 17 days of treatment): no significant improvement of gait or hypokinetic rigid syndrome
Gait / hypokinetic rigid syndrome (patient report) ([4]; PSP Patient 3, 17 days of treatment): no significant improvement of gait or hypokinetic rigid syndrome
Symptoms without medication ([4]; PSP Patient 4, after three months without medication): progression of hypokinetic-rigid syndrome
Gait analysis (summary) [4, 13]: improvement of gait with increased speed, max. speed, and step cycle length and reduction of track width, double stance and coefficient of variation
Gait and falls (patient report) [4, 13]: gait with increased subjective security and with reduced frequency of falls
LysoTracker fluorescence (lysosomal volume) ([5]; NPC patient of mild clinical severity): significant decrease in LysoTracker fluorescence
LysoTracker fluorescence (lysosomal volume) ([5]; additional NPC patients of variable clinical severity, 72 hours): findings were replicated
Symptomatology (patient report) [6]: improvement of the symptomatology, in particular reduced dizziness
benefit in degenerative cerebellar ataxia ([7]; case series (Pelz 2015)): did not find benefit
symptoms of cerebellar ataxia ([7]; case series (Strupp 2013)): symptomatic improvement of cerebellar ataxia
temporal gait variability ([7]; quantitative gait analysis (Schniepp 2015)): improved temporal gait variability
Lifespan [8]: small but statistically significant increase in lifespan
Gait properties vs untreated littermates [9]: significantly improved gait
Gait properties vs untreated littermates [10]: no significant difference in gait properties
Effect of temporary suspension of the medication ([11]; DBN Patient 1): considerable deterioration
Side-effects ([11]; DBN Patient 1, 5 gram per day): no side-effects resulted
Benefit (patient report) ([11]; DBN Patient 1, after 10 days, 3 g then 5 gram per day): significant benefit
Nystagmus (clinical examination) [11, 14]: reduction of the nystagmus
Postural sway (posturography) [11, 14]: reduction of postural sway
Oscillopsia / reading and writing ([11]; DBN Patient 1, approximately 14 weeks after starting): reduced oscillopsia
Gait ([11]; DBN Patient 2, 3 g/day then 5 g/day): improvement of gait
Downbeat nystagmus (video-oculography) ([11]; DBN Patient 2, on treatment): improved
Speech ([12]; MSA-C Patient 1, after one week, 5 g per day): significant improvement in speech
Dizziness ([12]; MSA-C Patient 2, after 3 weeks): substantially improved
Falls ([12]; MSA-C Patient 2, after 3 weeks): falls completely stopped
Gait ([12]; MSA-C Patient 2, after 3 weeks): significant improvement of gait
Symptoms after stopping medication ([12]; MSA-C Patient 2, one week after first stop): deterioration of gait and dizziness
Symptoms after stopping medication ([12]; MSA-C Patient 2, two days after second stop): progressive deterioration of gait and dizziness
Symptomatology after return to treatment ([12]; MSA-C Patient 3): symptomatology re-improved
Gait analysis (summary) ([12]; MSA-C Patient 3, after one month): improvement of gait speed, and reductions of track width and gait fluctuations
Symptoms after re-suspension ([12]; MSA-C Patient 3, three weeks after treatment was again suspended): deterioration of symptoms, especially dizziness
Symptoms after stopping medication ([12]; MSA-C Patient 3, two to three weeks after stopping): progressive deterioration of gait and dizziness
